Assay results taken from the supplement of paper PMC10307832.

Compound: CC(=O)c1c(C)c2cnc(Nc3ccc(N4CCNCC4)cn3)nc2n(C2CCCC2)c1=O [Palbociclib] + N=C(N)NC(=N)NCCc1ccccc1 [Phenformin] (partner 250 µM)
Experiment: relative viability (nuclei count vs DMSO), 5 days (fraction); higher = more cells survive
In short: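 Five library-drug doses in √10 steps were combined with a fixed anchor-drug dose, or a single drug was given alone, by pin tool to lung cancer cell lines in 1536-well plates the day after seeding. Nuclei were stained and counted after 5 days. Relative viability is the nuclei count in treated wells over that in vehicle wells, taken as the median of duplicate plates.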

Cell Line | relative viability (first compound 0.01 µM) | relative viability (first compound 0.03162 µM) | relative viability (first compound 0.1 µM) | relative viability (first compound 0.3162 µM) | relative viability (first compound 1 µM)
NCI-H650 | 0.447 | 0.371 | 0.403 | 0.352 | 0.316
LCLC-97TM1 | 0.41 | 0.32 | 0.414 | 0.351 | 0.227
NCI-H441 | 0.896 | 0.627 | 0.623 | 0.57 | 0.35
NCI-H522 | 0.623 | 0.592 | 0.586 | 0.644 | 1.19
NCI-H2347 | 0.612 |  | 0.285 | 0.26 | 0.182
NCI-H2228 | 0.322 | 0.287 | 0.293 | 0.258 | 0.307
NCI-H1355 | 0.511 | 0.39 | 0.387 | 0.385 | 0.26
HCC-44 | 0.234 |  | 0.171 | 0.223 | 0.204
NCI-H1650 | 0.45 | 0.251 | 0.289 | 0.348 | 0.233
NCI-H1944 | 0.206 | 0.172 | 0.182 | 0.174 | 0.165
COR-L 105 | 0.467 | 0.54 | 0.381 | 0.385 | 0.33
PC-14 | 0.817 |  | 0.549 | 0.528 | 0.282
NCI-H23 | 0.795 |  | 0.704 | 0.781 | 0.506
LOU-NH91 | 0.832 | 0.563 | 0.503 | 0.504 | 0.472
ChaGo-K-1 | 0.484 | 0.376 | 0.503 | 0.458 | 0.524
HCC-827 | 0.41 | 0.285 | 0.319 | 0.384 | 0.289
COR-L23 | 0.438 | 0.37 | 0.304 | 0.345 | 0.263
SK-MES-1 | 0.661 | 0.573 | 0.455 | 0.376 | 0.18
NCI-H2170 | 0.418 | 0.352 | 0.351 | 0.34 | 0.304
LC-2-ad | 0.573 |  | 0.523 | 0.414 | 0.383
NCI-H1793 | 0.28 |  | 0.336 | 0.309 | 0.173
NCI-H1915 | 0.365 | 0.308 | 0.37 | 0.346 | 0.323
NCI-H322M | 0.741 | 0.605 | 0.553 | 0.502 | 0.409
NCI-H1792 | 0.389 | 0.237 | 0.209 | 0.193 | 0.1
PC-3 [JPC-3] | 0.514 | 0.464 | 0.459 | 0.445 | 0.378

Cell Line | relative viability (first compound 0.01 µM) | relative viability (first compound 0.03162 µM) | relative viability (first compound 0.1 µM) | relative viability (first compound 0.3162 µM) | relative viability (first compound 1 µM)
NCI-H2405 | 0.387 | 0.344 | 0.327 | 0.36 | 0.317
NCI-H1563 | 0.709 | 0.636 | 0.639 | 0.654 | 0.537
EPLC-272H | 0.316 |  | 0.265 | 0.291 | 0.198
EMC-BAC-2 | 0.537 | 0.394 | 0.401 | 0.374 | 0.342
NCI-H3122 | 0.353 | 0.323 | 0.279 | 0.282 | 0.167
ABC-1 | 0.227 | 0.202 | 0.232 | 0.233 | 0.24
201T | 0.469 | 0.359 | 0.359 | 0.381 | 0.311
NCI-H1734 | 0.435 | 0.337 | 0.307 | 0.286 | 0.247
HCC-78 | 0.727 | 0.624 | 0.554 | 0.44 | 0.318
EKVX | 0.23 | 0.192 | 0.238 | 0.245 | 0.145
BEN | 0.285 | 0.243 | 0.237 | 0.249 | 0.257
HARA | 0.509 |  | 0.309 | 0.258 | 0.203
HCC-15 | 0.463 |  | 0.405 | 0.421 | 0.323
SW 900 | 0.632 |  | 0.435 | 0.448 | 0.298
NCI-H1975 | 0.388 | 0.384 | 0.325 | 0.273 | 0.3
NCI-H2126 | 0.494 | 0.418 | 0.381 | 0.413 | 0.392
NCI-H661 | 0.264 | 0.29 | 0.258 | 0.279 | 0.282
LXF-289 | 0.51 | 0.294 | 0.452 | 0.462 | 0.378
NCI-H1395 | 0.408 | 0.408 | 0.368 | 0.412 | 0.41
NCI-H358 | 0.308 | 0.278 | 0.197 | 0.238 | 0.106
NCI-H1651 | 0.342 | 0.332 | 0.308 | 0.337 | 0.256
NCI-H1993 | 0.467 | 0.474 | 0.464 | 0.445 | 0.556
NCI-H1437 | 0.321 | 0.445 | 0.258 | 0.237 | 0.199
A549 | 0.205 | 0.0665 | 0.11 | 0.129 | 0.096
NCI-H2023 | 0.405 | 0.381 | 0.321 | 0.319 | 0.218

Cell Line | relative viability (first compound 0.01 µM) | relative viability (first compound 0.03162 µM) | relative viability (first compound 0.1 µM) | relative viability (first compound 0.3162 µM) | relative viability (first compound 1 µM)
UMC-11 | 0.303 | 0.278 | 0.292 | 0.292 | 0.24
NCI-H727 | 0.472 | 0.453 | 0.422 | 0.467 | 0.362
LK-2 | 0.507 |  | 0.305 | 0.309 | 0.38
HOP-62 | 0.642 |  | 0.644 | 0.502 | 0.47
HCC-366 | 0.626 |  | 0.645 | 0.427 | 0.396
LCLC-103H | 0.33 | 0.28 | 0.318 | 0.248 | 0.223
NCI-H1666 | 0.57 | 0.462 | 0.518 | 0.411 | 0.427
NCI-H460 | 0.537 | 0.411 | 0.409 | 0.333 | 0.149
SW 1573 | 0.364 | 0.324 | 0.234 | 0.216 | 0.219
NCI-H520 | 0.5 | 0.321 | 0.348 | 0.407 | 0.227
LU99A | 0.851 | 0.507 | 0.688 | 0.837 | 0.602
RERF-LC-KJ | 0.419 | 0.414 | 0.418 | 0.459 | 0.485
NCI-H596 | 0.982 |  | 0.757 | 0.712 | 0.673
SK-LU-1 | 0.546 | 0.418 | 0.309 | 0.314 | 0.254
H3255 | 0.38 | 0.361 | 0.319 | 0.368 | 0.287
NCI-H2085 | 0.667 | 0.555 | 0.616 | 0.592 | 0.399
NCI-H2009 | 0.457 | 0.396 | 0.357 | 0.291 | 0.23
NCI-H2342 | 0.569 | 0.555 | 0.477 | 0.564 | 0.441
A-427 | 0.392 | 0.2 | 0.282 | 0.269 | 0.212
NCI-H647 | 0.639 | 0.382 | 0.379 | 0.464 | 0.257
NCI-H838 | 0.628 | 0.562 | 0.402 | 0.467 | 0.202
NCI-H2087 | 0.449 |  | 0.291 | 0.229 | 0.189
CAL-12T | 0.603 | 0.475 | 0.429 | 0.421 | 0.324
NCI-H1755 | 0.626 | 0.433 | 0.495 | 0.53 | 0.405
